Source: the NIST ThermoML archive (doi:10.1021/acs.jced.5b00474)
± gives the expanded uncertainty stated by the source.

Experiment: xn = mol fraction of the nth substance listed
Settings: 101 kPa, Liquid; for speed of sound: Frequency=3 MHz, Sing-around technique in a fixed-path interferometer; for mass density: Vibrating tube method

O=C1CCCN1 [2-pyrrolidinone] + CC#N
Settings	mass density [kg/m3]	speed of sound [m/s]
298.15 K, x1 = 0.1025	827.196 ± 0.52	1311.2 ± 0.88
298.15 K, x1 = 0.1865	864.997 ± 0.51	1337 ± 0.9
298.15 K, x1 = 0.3069	913.434 ± 0.51	1380.2 ± 0.89
298.15 K, x1 = 0.3976	946.686 ± 0.51	1414.4 ± 0.89
298.15 K, x1 = 0.4974	979.551 ± 0.51	1451.9 ± 0.9
298.15 K, x1 = 0.605	1012.17 ± 0.51	1492.9 ± 0.9
298.15 K, x1 = 0.695	1036.85 ± 0.51	1526.1 ± 0.91
298.15 K, x1 = 0.7932	1061.58 ± 0.51	1561.6 ± 0.92
298.15 K, x1 = 0.8972	1085.63 ± 0.51	1598.1 ± 0.93
303.15 K, x1 = 0.1025	821.985 ± 0.52	–
303.15 K, x1 = 0.1865	859.946 ± 0.52	1317.8 ± 0.88
303.15 K, x1 = 0.3069	908.581 ± 0.52	1362.3 ± 0.88
303.15 K, x1 = 0.3976	941.969 ± 0.51	1396.8 ± 0.89
303.15 K, x1 = 0.4974	974.979 ± 0.51	1434.8 ± 0.89
303.15 K, x1 = 0.605	1007.72 ± 0.51	1476 ± 0.9
303.15 K, x1 = 0.695	1032.51 ± 0.51	1509.5 ± 0.91
303.15 K, x1 = 0.7932	1057.33 ± 0.51	1545.2 ± 0.92
303.15 K, x1 = 0.8972	1081.46 ± 0.51	1582.1 ± 0.93
308.15 K, x1 = 0.1025	816.754 ± 0.52	–
308.15 K, x1 = 0.1865	854.873 ± 0.52	1298.8 ± 0.87
308.15 K, x1 = 0.3069	903.718 ± 0.52	1344.4 ± 0.88
308.15 K, x1 = 0.3976	937.251 ± 0.51	1379.3 ± 0.88
308.15 K, x1 = 0.4974	970.394 ± 0.51	1417.7 ± 0.89
308.15 K, x1 = 0.695	1028.15 ± 0.51	1492.4 ± 0.91
308.15 K, x1 = 0.8972	1077.29 ± 0.51	1565.9 ± 0.92
308.16 K, x1 = 0.605	1003.27 ± 0.51	1459.2 ± 0.9
308.16 K, x1 = 0.7932	1053.07 ± 0.51	1528.7 ± 0.91
313.15 K, x1 = 0.1025	811.493 ± 0.52	–
313.15 K, x1 = 0.1865	849.779 ± 0.52	1280.1 ± 0.87
313.15 K, x1 = 0.3069	898.84 ± 0.52	1326.7 ± 0.87
313.15 K, x1 = 0.605	998.811 ± 0.51	1442.4 ± 0.89
313.15 K, x1 = 0.7932	1048.82 ± 0.51	1512.3 ± 0.91
313.15 K, x1 = 0.8972	1073.12 ± 0.51	1549.8 ± 0.92
313.16 K, x1 = 0.3976	932.515 ± 0.51	1361.9 ± 0.88
313.16 K, x1 = 0.4974	965.8 ± 0.51	1400.7 ± 0.88
313.16 K, x1 = 0.695	1023.8 ± 0.51	1475.5 ± 0.9
318.15 K, x1 = 0.1025	806.204 ± 0.52	–
318.15 K, x1 = 0.1865	844.673 ± 0.52	1261.4 ± 0.86
318.15 K, x1 = 0.3976	927.77 ± 0.51	1344.6 ± 0.87
318.15 K, x1 = 0.605	994.35 ± 0.51	1425.7 ± 0.89
318.15 K, x1 = 0.695	1019.44 ± 0.51	1458.7 ± 0.9
318.15 K, x1 = 0.7932	1044.56 ± 0.51	1496.1 ± 0.9
318.15 K, x1 = 0.8972	1068.96 ± 0.51	1533.8 ± 0.91
318.16 K, x1 = 0.3069	893.944 ± 0.52	1308.8 ± 0.87
318.16 K, x1 = 0.4974	961.2 ± 0.51	1383.7 ± 0.88
323.15 K, x1 = 0.8972	1064.8 ± 0.51	1517.9 ± 0.91
323.16 K, x1 = 0.1025	800.887 ± 0.53	–
323.16 K, x1 = 0.1865	839.54 ± 0.53	1242.8 ± 0.84
323.16 K, x1 = 0.3069	889.032 ± 0.52	1290.5 ± 0.86
323.16 K, x1 = 0.3976	923.008 ± 0.52	1327.3 ± 0.87
323.16 K, x1 = 0.4974	956.587 ± 0.52	1366.8 ± 0.88
323.16 K, x1 = 0.605	989.88 ± 0.51	1408.9 ± 0.89
323.16 K, x1 = 0.695	1015.08 ± 0.51	1441.8 ± 0.89
323.16 K, x1 = 0.7932	1040.3 ± 0.51	1479.9 ± 0.9
